Patent US12358907B2, “Substituted pyrrolidine amides III” (GRÜNENTHAL GMBH, priority 2019, dated 2025)
Where two headings read alike, the source gives them in different places.

Target: glucocorticoid receptor (GAL4 DBD-GR) (Homo sapiens (Human), UniProt P04150)
Assay: GR cell-based assays (GRE agonist / GRE antagonist), CHO-Gal4/GR luciferase reporter
How it was run: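 CHO cells stably carrying GAL4 DBD-GR ligand-binding-domain fusion and a GAL4-UAS firefly luciferase reporter were treated in Opti-MEM with 8 half-log concentrations from 10 μM to 0.003 μM (0.5% DMSO, quadruplicates). Antagonist mode measured repression of beclomethasone-induced signal. Luminescence after lysis gave EC50 or IC50.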

[1] = CHO-Gal4/GR reporter cells, agonist mode (EC50) or antagonist mode against beclometasone (IC50), 6 hour incubation

Sequence of glucocorticoid receptor (GAL4 DBD-GR) (P04150 524-758): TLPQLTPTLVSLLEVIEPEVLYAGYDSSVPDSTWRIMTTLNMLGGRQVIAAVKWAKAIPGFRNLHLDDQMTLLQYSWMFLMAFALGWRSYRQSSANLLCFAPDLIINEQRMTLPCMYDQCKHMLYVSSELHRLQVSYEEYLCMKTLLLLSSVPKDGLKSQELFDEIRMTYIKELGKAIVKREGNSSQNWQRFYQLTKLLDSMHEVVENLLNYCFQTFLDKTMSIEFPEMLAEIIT

SMILES | IC50 (read-out: IC50 or EC50) | IC50 [1]
CC1(C)C(=O)N(c2ccc3c(cnn3-c3ccc(F)cc3)c2)[C@H](c2ccccc2)[C@H]1NS(=O)(=O)C1CC1 [Example 35a, N-((2R,3S)-1-(1-(4-fluorophenyl)-1H-indazol-5-yl)-4,4-dimethyl-5-oxo-2-phenylpyrrolidin-3-yl)cyclopropanesulfonamide] | – | < 100 nM
Cn1cc(C[C@@H]2C(=O)N(c3ccc4c(cnn4-c4ccc(F)cc4)c3)[C@H](c3ccccc3)[C@H]2NC(=O)C2CC2)cn1 [Example 139a, N-((2R,3S,4S)-1-(1-(4-fluorophenyl)-1H-indazol-5-yl)-4-((1-methyl-1H-pyrazol-4-yl)methyl)-5-oxo-2-phenylpyrrolidin-3-yl)cyclopropanecarboxamide] | 1000 to 15000 nM | –
Cc1cccc([C@@H]2[C@@H](NC(=O)c3ncccn3)[C@H](C)C(=O)N2c2ccc3c(cnn3-c3ccc(F)cc3)c2)c1 (racemic) [Example 69, N-[rac-(2R,3S,4S)-1-[1-(4-Fluorophenyl)-1H-indazol-5-yl]-4-methyl-2-m-tolyl-5-oxo-pyrrolidin-3-yl]-pyrimidine-2-carboxylic acid amide] | < 100 nM | –
CC[C@@H]1[C@@H](NS(C)(=O)=O)[C@H](Cc2ccccc2)C(=O)N1c1ccc2c(cnn2-c2ccc(F)cc2)c1 (racemic) [Example 91, N-[rac-(2R,3S,4S)-4-Benzyl-2-ethyl-1-[1-(4-fluorophenyl)-1H-indazol-5-yl]-5-oxo-pyrrolidin-3-yl]-methanesulfonic acid amide] | 1000 to 15000 nM | –
Cc1noc(C[C@@H]2C(=O)N(c3ccc4c(cnn4-c4ccc(F)cc4)c3)[C@H](c3ccccc3)[C@H]2NC(=O)C2CC2)n1 [Example 138, N-((2R,3S,4S)-1-(1-(4-fluorophenyl)-1H-indazol-5-yl)-4-((3-methyl-1,2,4-oxadiazol-5-yl)methyl)-5-oxo-2-phenylpyrrolidin-3-yl)cyclopropanecarboxamide] | 100 to 1000 nM | –
O=C(N[C@H]1[C@H](F)C(=O)N(c2ccc3c(cnn3-c3ccc(F)cc3)c2)[C@@H]1c1ccccc1)C1CC1 [Example 95, N-((2R,3R,4S)-4-fluoro-1-(1-(4-fluorophenyl)-1H-indazol-5-yl)-5-oxo-2-phenylpyrrolidin-3-yl)cyclopropanecarboxamide] | – | < 100 nM
C[C@@H]1C(=O)N(c2ccc3c(cnn3-c3ccc(F)cc3)c2)[C@H](c2ccccc2)[C@H]1NS(C)(=O)=O (racemic) [Example 61, N-[rac-(2R,3S,4S)-1-[1-(4-Fluorophenyl)-1H-indazol-5-yl]-4-methyl-5-oxo-2-phenyl-pyrrolidin-3-yl]-methanesulfonic acid amide] | 100 to 1000 nM | –
C[C@@H]1C(=O)N(c2ccc3c(cnn3-c3ccc(F)cc3)c2)[C@H](c2ccccc2)[C@H]1NC(=O)c1ccn(C)n1 (racemic) [Example 64, N-[rac-(2R,3S,4S)-1-[1-(4-Fluorophenyl)-1H-indazol-5-yl]-4-methyl-5-oxo-2-phenyl-pyrrolidin-3-yl]-1-methyl-1H-pyrazole-3-carboxylic acid amide] | < 100 nM | –
COc1ccc([C@@H]2[C@@H](NC(=O)C(C)(F)F)[C@H](C)C(=O)N2c2ccc3c(cnn3-c3ccc(F)cc3)c2)cc1 (racemic) [Example 98, 2,2-Difluoro-N-[rac-(2R,3S,4S)-1-[1-(4-fluorophenyl)-1H-indazol-5-yl]-2-(4-methoxyphenyl)-4-methyl-5-oxo-pyrrolidin-3-yl]-propionamide] | < 100 nM | –
COc1ccc([C@@H]2[C@@H](NC(=O)C3CC3)[C@H](C)C(=O)N2c2ccc3c(cnn3-c3ccc(F)cc3)c2)cc1 (racemic) [Example 133, N-[rac-(2R,3S,4S)-1-[1-(4-Fluorophenyl)-1H-indazol-5-yl]-2-(4-methoxyphenyl)-4-methyl-5-oxo-pyrrolidin-3-yl]-cyclopropanecarboxylic acid amide] | 100 to 1000 nM | –
C[C@@H]1C(=O)N(c2ccc3c(cnn3-c3ccc(F)cc3)c2)[C@H](c2ccccc2)[C@H]1NC(=O)c1ncccn1 (racemic) [Example 66, N-[rac-(2R,3S,4S)-1-[1-(4-Fluorophenyl)-1H-indazol-5-yl]-4-methyl-5-oxo-2-phenyl-pyrrolidin-3-yl]-pyrimidine-2-carboxylic acid amide] | < 100 nM | –
C[C@@]1(c2ccccc2)[C@@H](NC(=O)C2CC2)CC(=O)N1c1ccc2c(cnn2-c2ccc(F)cc2)c1 (racemic) [Example 101, N-[rac-(2R,3S)-1-[1-(4-Fluorophenyl)-1H-indazol-5-yl]-2-methyl-5-oxo-2-phenyl-pyrrolidin-3-yl]-cyclopropanecarboxylic acid amide] | 100 to 1000 nM | –
C[C@@H]1C(=O)N(c2ccc3c(cnn3-c3ccc(F)cc3)c2)[C@H](c2ccccc2)[C@H]1NC(=O)C1CC1 (racemic) [Example 46, N-[rac-(2R,3S,4S)-1-[1-(4-Fluorophenyl)-1H-indazol-5-yl]-4-methyl-5-oxo-2-phenyl-pyrrolidin-3-yl]-cyclopropanecarboxylic acid amide] | < 100 nM | –
C[C@H]1C(=O)N(c2ccc3c(cnn3-c3ccc(F)cc3)c2)[C@H](c2ccc(Cl)s2)[C@H]1NC(=O)C1CC1 (racemic) [Example 124, N-[rac-(2S,3S,4R)-2-(5-Chloro-thiophen-2-yl)-1-[1-(4-fluorophenyl)-1H-indazol-5-yl]-4-methyl-5-oxo-pyrrolidin-3-yl]-cyclopropanecarboxylic acid amide] | < 100 nM | –
CC1(C)C(=O)N(c2ccc3c(cnn3-c3ccc(F)cc3)c2)[C@@H](c2ccccc2)[C@@H]1NC(=O)c1ncccn1 [Example 43b, N-((2S,3R)-1-(1-(4-fluorophenyl)-1H-indazol-5-yl)-4,4-dimethyl-5-oxo-2-phenylpyrrolidin-3-yl)pyrimidine-2-carboxamide] | 1000 to 15000 nM | –
C[C@@]1(CC(F)F)C(=O)N(c2ccc3c(cnn3-c3ccc(F)cc3)c2)[C@H](c2ccccc2)[C@H]1NC(=O)C1CC1 (racemic) [Example 148, N-(rac-(2R,3S,4S)-4-(2,2-difluoroethyl)-1-(1-(4-fluorophenyl)-1H-indazol-5-yl)-4-methyl-5-oxo-2-phenylpyrrolidin-3-yl)cyclopropanecarboxamide] | < 100 nM | –
Cn1cc(C(=O)N[C@H]2[C@H](c3ccccc3)N(c3ccc4c(cnn4-c4ccc(F)cc4)c3)C(=O)C2(C)C)cn1 [Example 41b, N-((2S,3R)-1-(1-(4-fluorophenyl)-1H-indazol-5-yl)-4,4-dimethyl-5-oxo-2-phenylpyrrolidin-3-yl)-1-methyl-1H-pyrazole-4-carboxamide] | 1000 to 15000 nM | –
CC1(C)C(=O)N(c2ccc3c(cnn3-c3ccc(F)cc3)c2)[C@H](c2ccccc2)[C@H]1NC(=O)c1cnco1 [Example 36a, N-((2R,3S)-1-(1-(4-fluorophenyl)-1H-indazol-5-yl)-4,4-dimethyl-5-oxo-2-phenylpyrrolidin-3-yl)oxazole-5-carboxamide] | 100 to 1000 nM | –

Results, then the molecule that gave them:

IC50 (read-out: IC50 or EC50) | IC50 [1] | SMILES
< 100 nM | – | C[C@H]1C(=O)N(c2ccc3c(cnn3-c3ccc(F)cc3)c2)[C@H](c2ccccc2Cl)[C@H]1NS(C)(=O)=O (racemic) [Example 86, N-[rac-(2R,3S,4R)-2-(2-Chlorophenyl)-1-[1-(4-fluorophenyl)-1H-indazol-5-yl]-4-methyl-5-oxo-pyrrolidin-3-yl]-methanesulfonic acid amide]
– | < 100 nM | Cn1ccc(C(=O)N[C@@H]2[C@@H](c3ccccc3)N(c3ccc4c(cnn4-c4ccc(F)cc4)c3)C(=O)C2(C)C)n1 [Example 37, N-((2R,3S)-1-(1-(4-fluorophenyl)-1H-indazol-5-yl)-4,4-dimethyl-5-oxo-2-phenylpyrrolidin-3-yl)-1-methyl-1H-pyrazole-3-carboxamide]
< 100 nM | – | CC[C@@H]1C(=O)N(c2ccc3c(cnn3-c3ccc(F)cc3)c2)[C@H](c2ccccc2)[C@H]1NC(=O)C1CC1 (racemic) [Example 126, N-[rac-(2R,3S,4S)-4-Ethyl-1-[1-(4-fluorophenyl)-1H-indazol-5-yl]-5-oxo-2-phenyl-pyrrolidin-3-yl]-cyclopropanecarboxylic acid amide]
< 100 nM | – | CC(F)(F)C(=O)N[C@H]1CC(=O)N(c2ccc3c(cnn3-c3ccc(F)cc3)c2)[C@]1(C)c1ccccc1 (racemic) [Example 100, 2,2-Difluoro-N-[rac-(2R,3S)-1-[1-(4-fluorophenyl)-1H-indazol-5-yl]-2-methyl-5-oxo-2-phenyl-pyrrolidin-3-yl]-propionamide]
< 100 nM | – | C[C@H]1C(=O)N(c2ccc3c(cnn3-c3ccc(F)cc3)c2)[C@H](c2ccccc2Cl)[C@H]1NC(=O)c1ncccn1 (racemic) [Example 88, N-[rac-(2R,3S,4R)-2-(2-Chlorophenyl)-1-[1-(4-fluorophenyl)-1H-indazol-5-yl]-4-methyl-5-oxo-pyrrolidin-3-yl]-pyrimidine-2-carboxylic acid amide]
< 100 nM | – | Cc1cccc([C@@H]2[C@@H](NC(=O)C3CC3)[C@@H](C)C(=O)N2c2ccc3c(cnn3-c3ccc(F)cc3)c2)c1 (racemic) [Example 70, N-[rac-(2R,3S,4R)-1-[1-(4-Fluorophenyl)-1H-indazol-5-yl]-4-methyl-2-m-tolyl-5-oxo-pyrrolidin-3-yl]-cyclopropanecarboxylic acid amide]
– | 100 to 1000 nM | O=C(N[C@H]1C(CCc2ccccc2)C(=O)N(c2ccc3c(cnn3-c3ccc(F)cc3)c2)[C@@H]1c1ccccc1)C1CC1 (single isomer, unassigned) [Example 130]
100 to 1000 nM | – | CC[C@@]1(C)C(=O)N(c2ccc3c(cnn3-c3ccc(F)cc3)c2)[C@H](c2ccccc2)[C@H]1NC(=O)C1CC1 (racemic) [Example 134, N-(rac-(2R,3S,4R)-4-ethyl-1-(1-(4-fluorophenyl)-1H-indazol-5-yl)-4-methyl-5-oxo-2-phenylpyrrolidin-3-yl)cyclopropanecarboxamide]
– | < 100 nM | Cc1ncc(C(=O)N[C@@H]2[C@@H](c3ccccc3)N(c3ccc4c(cnn4-c4ccc(F)cc4)c3)C(=O)C2(C)C)o1 [Example 44a, N-((2R,3S)-1-(1-(4-fluorophenyl)-1H-indazol-5-yl)-4,4-dimethyl-5-oxo-2-phenylpyrrolidin-3-yl)-2-methyloxazole-5-carboxamide]
